Values of other authors as cited in US9622967B2, “Highly stable compositions of orally active nucleotide analogues or orally active nucleotide analogue prodrugs” (Sigmapharm Laboratories, LLC, priority 2010, dated 2017).
Where a name gives a salt, the structure may show the parent alone.

CC(C)OC(=O)OCOP(=O)(CO[C@H](C)Cn1cnc2c(N)ncnc21)OCOC(=O)OC(C)C [tenofovir disoproxil fumarate]
monoester mono(POC)-PMPA formed, weight percentage (3 days at 60° C. and 75% RH): 3.1% | monoester mono(POC)PMPA already formed soon after production (soon after production): up to 1.0 % w/w
